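Values below derive from 48-hour exposures of cells grown in 96-well plates, with endpoints linearly interpolated between the two concentrations bracketing the appropriate inhibition level. Definition used: TGI = concentration required for complete inhibition of growth.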

Some test systems named below: TK-10 renal; OVCAR-8 ovarian; HCC-2998 colon; HT29 colon; EKVX NSCLC; SR leukemia; LOX IMVI melanoma; CAKI-1 renal; HL-60(TB) leukemia; COLO 205 colon; MDA-MB-435; NCI/ADR-RES ovarian; SW-620 colon; HS 578T breast; U251 CNS; SF-539 CNS; MOLT-4 leukemia; SF-268 CNS; K-562 leukemia; RPMI-8226 leukemia.
Common to all, as to test: NCI anticancer screen, dose series, 48 h

Turning to `O=[N+]([O-])C(=C(Cl)Cl)C(Cl)=C(Cl)Cl`, the TGI is 1.35 µM with TK-10 renal; 5.14 µM with OVCAR-8 ovarian; 5.43 µM in the test with HCC-2998 colon; 0.852 µM in the test on HT29 colon; 11.2 µM in the test with EKVX NSCLC; greater than 100 µM in the test with SR leukemia. Moreover, the TGI in the test with LOX IMVI melanoma worked out at 0.0351 µM; with CAKI-1 renal it was 0.699 µM; in the test with HL-60(TB) leukemia, 0.0573 µM; with COLO 205 colon, 0.254 µM; in the test on MDA-MB-435, 1.07 µM; in the test on NCI/ADR-RES ovarian, 5.45 µM. The TGI in the test with SW-620 colon was 0.157 µM; in the test on HS 578T breast, 3.29 µM; with U251 CNS, 7.26 µM; with SF-539 CNS it was 3.45 µM; in the test on MOLT-4 leukemia, 0.175 µM; in the test on SF-268 CNS, 4.92 µM. The TGI in the test on K-562 leukemia turned out to be 0.118 µM.
Take `CN(C)CCCN1c2ccc([N+](=O)[O-])cc2CCc2cccc([N+](=O)[O-])c21`: the TGI is 23.2 µM in the test on TK-10 renal; 32.3 µM in the test with OVCAR-8 ovarian; 26.3 µM in the test on HCC-2998 colon; 32.5 µM in the test on HT29 colon; 39.1 µM with EKVX NSCLC; greater than 100 µM in the test with SR leukemia. For the same molecule, the TGI stood at 31.8 µM in the test with LOX IMVI melanoma; 98.7 µM in the test on RPMI-8226 leukemia; 37 µM in the test with HL-60(TB) leukemia; 28.6 µM in the test with COLO 205 colon; 27.7 µM with MDA-MB-435; 30.4 µM in the test on NCI/ADR-RES ovarian. For the same molecule, the TGI with SW-620 colon amounted to 39.5 µM; in the test with HS 578T breast it was 31.7 µM; in the test on U251 CNS it was 29.3 µM; in the test with SF-539 CNS it was 31.5 µM; in the test with MOLT-4 leukemia it was 51.5 µM; in the test on SF-268 CNS, 29 µM. This molecule also showed a TGI in the test with K-562 leukemia of 52 µM.
For `O=C1OCN(c2ccccc2)C12CCN(Cc1ccccc1)CC2`, the TGI was greater than 100 µM in the test on TK-10 renal; greater than 100 µM with OVCAR-8 ovarian; 32.6 µM in the test on HCC-2998 colon; 31.9 µM in the test with HT29 colon; greater than 100 µM with EKVX NSCLC; greater than 100 µM in the test with SR leukemia. In addition, the TGI was 30.4 µM in the test on LOX IMVI melanoma; 89 µM with RPMI-8226 leukemia; greater than 100 µM in the test with CAKI-1 renal; greater than 100 µM in the test with HL-60(TB) leukemia; 39.6 µM in the test on COLO 205 colon; 31.2 µM with MDA-MB-435. In addition, the TGI with NCI/ADR-RES ovarian is greater than 100 µM; in the test with SW-620 colon it was 49.8 µM; with HS 578T breast, 55.4 µM; with U251 CNS it was 31.5 µM; in the test with SF-539 CNS it was 39.7 µM; with MOLT-4 leukemia it was 36.6 µM. Besides, the results for the TGI in the test with SF-268 CNS and in the test on K-562 leukemia were greater than 100 µM and 24.1 µM, respectively.
`C[N+](C)(CCCn1ccnc1[N+](=O)[O-])CCCn1ccnc1[N+](=O)[O-]`: the TGI with TK-10 renal, in the test with OVCAR-8 ovarian, in the test with HT29 colon, in the test on EKVX NSCLC, in the test on SR leukemia and in the test with LOX IMVI melanoma was greater than 100 µM in each case. The TGI in the test on RPMI-8226 leukemia, with CAKI-1 renal, in the test with HL-60(TB) leukemia, in the test with COLO 205 colon, in the test on MDA-MB-435 and in the test with NCI/ADR-RES ovarian was greater than 100 µM each time. Further, the TGI in the test on SW-620 colon, in the test with HS 578T breast, in the test with U251 CNS, in the test on SF-539 CNS, in the test on MOLT-4 leukemia and in the test on SF-268 CNS was greater than 100 µM each time. In the test with K-562 leukemia, this molecule displayed a TGI greater than 100 µM.
Regarding `N#CC(C#N)=C1C(=Cc2ccc(OCCCCCCCCCCSSCCCCCCCCCCOc3ccc(C=C4C(=C(C#N)C#N)c5ccccc5C4=C(C#N)C#N)cc3)cc2)C(=C(C#N)C#N)c2ccccc21`, the TGI is greater than 100 µM in the test on TK-10 renal; greater than 100 µM in the test on OVCAR-8 ovarian; 28.9 µM in the test with HCC-2998 colon; 34.1 µM in the test on HT29 colon; 43.1 µM in the test with EKVX NSCLC; 68 µM in the test with SR leukemia. For the same molecule, the TGI in the test on LOX IMVI melanoma is 35.6 µM; with RPMI-8226 leukemia, greater than 100 µM; with CAKI-1 renal, 71.2 µM; with HL-60(TB) leukemia, 2.36 µM; in the test on MDA-MB-435 it was greater than 100 µM; with NCI/ADR-RES ovarian it was 38.8 µM. The TGI came out at 52.1 µM in the test with SW-620 colon; 52.4 µM in the test with HS 578T breast; 46.8 µM in the test on U251 CNS; 47 µM with SF-539 CNS; 80 µM in the test with MOLT-4 leukemia; 55.1 µM in the test with SF-268 CNS. Also, the TGI in the test on K-562 leukemia was determined as 60.4 µM.
Regarding `CCOC(=O)c1c(SC(=O)c2ccc(C(C)(C)C)cc2)n(-c2ccccc2)c(=S)n(-c2ccccc2)c1=O`, the TGI in the test on TK-10 renal, in the test with OVCAR-8 ovarian, in the test on HCC-2998 colon, with HT29 colon, with EKVX NSCLC and in the test with SR leukemia was greater than 100 µM throughout. In addition, the TGI in the test on LOX IMVI melanoma, in the test with CAKI-1 renal, in the test on HL-60(TB) leukemia, with COLO 205 colon, with MDA-MB-435 and in the test with NCI/ADR-RES ovarian was greater than 100 µM throughout. For the same molecule, the TGI in the test with SW-620 colon, with HS 578T breast, in the test with U251 CNS, in the test on SF-539 CNS, in the test with MOLT-4 leukemia and in the test with SF-268 CNS was greater than 100 µM throughout. The TGI in the test with K-562 leukemia is greater than 100 µM.
On to `COc1cc2c(cc1OC)[C@@H]1[C@H](C#N)C(=O)C(C)(C)N1CC2`, for which the TGI in the test with TK-10 renal, with OVCAR-8 ovarian, with HCC-2998 colon, with HT29 colon, with EKVX NSCLC and with SR leukemia was greater than 100 µM each time. Also, the TGI in the test with LOX IMVI melanoma, with RPMI-8226 leukemia, in the test on CAKI-1 renal, with HL-60(TB) leukemia, with COLO 205 colon and with MDA-MB-435 was greater than 100 µM each time. The TGI in the test on NCI/ADR-RES ovarian, in the test on SW-620 colon, in the test with HS 578T breast, in the test on U251 CNS, in the test on MOLT-4 leukemia and in the test with K-562 leukemia was greater than 100 µM each time.

The values are drawn from PubChem BioAssay (NCI).
